# Test results as given in patent US11306098B2, “Substituted pyrrolo[1,2-a]pyrazines and pyrrolo[1,2-a][1,4]diazepines as TREX1 inhibitors” (VENENUM BIODESIGN, LLC, priority 2019, dated 2022).
# Assays:
# [1] = tested on: interferon stimulated genes (ISGs) in THP1 Dual cells; assay: RT-qPCR assay of interferon stimulated gene expression; assay type: cell-based, human; conditions: substance alone, 24 hours, normalized to GAPDH, unstimulated control = 1
# Excerpt: Example D is a cell based assay that measures the increase in the expression of interferon stimulated genes (ISG) by RT-qPCR that are induced by TREX1 inhibitors when THP1 Dual™ cells are transfected with double-stranded DNA. The double stranded DNA used to transfect cells was VACV-70 (Invivogen), a 70 base pair oligonucleotide containing viral DNA motifs (Unterholzner L. et al., 2010. IFI16 is an innate immune sensor for intracellular DNA. Nat Immunol. 11(11):997-1004). Activation of cGAS-STING pathway in THP1 Dual™ cells increases the expression of ISGs.
# The RT-qPCR assay was used to assess the ability of TREX1 inhibitors to enhance the expression of interferon stimulated genes (ISGs) in cells transfected with double-stranded DNA. The double stranded DNA used to transfect cells was VACV-70 (Invivogen), a 70 base pair oligonucleotide containing viral DNA motifs (Unterholzner L. et al., 2010. IFI16 is an innate immune sensor for intracellular DNA. Nat Immunol. 11(11):997-1004). Human THP1 Dual™ cells (Invivogen), were treated with test compound in the presence or absence of 1,200 ng/mL VACV-70, or with VACV-70 alone, for 24 hours. Cells were harvested by centrifugation and washed with phosphate buffer saline. Total RNA was isolated using Qiagen RNeasy mini kit. Genomic DNA was degraded using Thermo Scientific DNase 1 kit. Total RNA was quantified using a Nanodrop spectrophotometer. Using equal amounts of RNA, cDNA was synthesized using Invitrogen Superstrand III First Strand synthesis kit. Target and reference gene expression levels were determined by RT-qPCR using TaqMan gene expression assays and a Stratagene Mx3005P QPCR system (all reagents were from TaqMan, Applied Biosystems). Data were analyzed by the Comparative CT method. GAPDH was used for normalization. Target genes that were analyzed included interferon stimulated genes (INF-β, CXCL10, IFIT1, IFIT2, IFIT3, IFI44, and IFI44L).
# human TREX1 = human TREX1 (Homo sapiens (Human), UniProt Q9NSU2); assay: TREX1 Exonuclease Assay (human enzyme); assay type: biochemical; conditions: human TREX1 0.5 nM, FAM/BHQ1-labeled DNA oligonucleotide
# Sequence of human TREX1 (Q9NSU2 1-242): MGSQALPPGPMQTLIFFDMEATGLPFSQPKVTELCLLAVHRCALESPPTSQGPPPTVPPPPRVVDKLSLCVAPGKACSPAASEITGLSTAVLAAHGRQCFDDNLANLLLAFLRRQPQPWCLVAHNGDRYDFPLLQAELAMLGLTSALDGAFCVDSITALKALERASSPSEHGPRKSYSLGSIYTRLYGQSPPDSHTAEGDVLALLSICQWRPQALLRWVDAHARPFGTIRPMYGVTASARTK
# Procedure: (§1) The TREX1 Exonuclease assay is an exemplary in vitro assay for measuring the activity of the TREX1 inhibitors of the present invention. In this assay, TREX1 exonuclease activity was evaluated by measuring the increase in fluorescence resulting from TREX1-catalyzed removal of a quencher from the 3′ end of a FAM-labeled DNA oligonucleotide (5′FAM-CCA CGA GAG CGT-BHQ1-3′). The assay was conducted using Wild Type (WT) human or murine TREX1 enzyme constructs corresponding to amino acids 55-297 of UniProt ID Q9NSU2-1 (SEQ ID NO: 1), or amino acids 1-242 of UniProt ID Q91XB0-1 (SEQ ID NO: 2), respectively. See, e.g., Example A.
# (§2) For human TREX1, the nucleotide sequence of the gene construct was codon optimized for expression in the bacterial host. The sequence was incorporated into the pMAL-c5e vector (NEB) downstream of a solubility-promoting MBP (maltose binding protein) fusion partner. The fusion protein product was expressed in E. coli strain BL21 (DE3) (Millipore) and purified in a series of chromatographic steps. Initial steps were conducted using a dextrin sepharose affinity column followed by a Q-sepharose ion exchange column (both GE Healthcare). After the second column the MBP partner was removed by incubation with enterokinase (NEB). Further purification was carried out with the second application of a Q-sepharose column followed by a Superdex 75 (GE Healthcare) size exclusion column. Finally, a heparin sepharose column (GE Healthcare) was applied to remove contaminating nucleotides. Similar methods were used in the preparation of the murine TREX1 enzyme and are described in Example B set forth below.
# (§3) To evaluate the effect of compounds on TREX1 activity, test compounds were serially diluted (11-point, 3-fold) from 10 mM stock solutions and delivered to 384-well low-volume assay plates in 80 nL DMSO using an acoustic dispenser. Next, 4 μL of human TREX1 (0.5 nM), or murine TREX1 (1 nM), diluted in assay buffer (20 mM Tris pH 7.5, 5 mM MgCl2, 100 μg/mL BSA, 0.002% Triton X-100, 2 mM DTT), was added to the assay plate. After incubating for 30 minutes, 4 μL of labeled DNA oligonucleotide (500 nM) in assay buffer was added to initiate TREX1 exonuclease activity. The reaction was allowed to proceed for 45 minutes at room temperature prior to the addition of 4 μL of 150 mM EDTA to halt TREX1 activity. Assay plates were equilibrated for an additional 30 minutes and read on an EnVision Plate Reader (Perkin Elmer) to measure fluorescence emission at 535 nm following excitation at 485 nm. Fluorescence was plotted as a function of log molar compound concentration and fit to four-parameter dose-response equation to determine compound IC50.
# murine TREX1 = murine TREX1 (Mus musculus (Mouse), UniProt Q91XB0); assay: TREX1 Exonuclease Assay (murine enzyme); assay type: biochemical; conditions: murine TREX1 1 nM, FAM/BHQ1-labeled DNA oligonucleotide
# Sequence of murine TREX1 (Q91XB0 1-242): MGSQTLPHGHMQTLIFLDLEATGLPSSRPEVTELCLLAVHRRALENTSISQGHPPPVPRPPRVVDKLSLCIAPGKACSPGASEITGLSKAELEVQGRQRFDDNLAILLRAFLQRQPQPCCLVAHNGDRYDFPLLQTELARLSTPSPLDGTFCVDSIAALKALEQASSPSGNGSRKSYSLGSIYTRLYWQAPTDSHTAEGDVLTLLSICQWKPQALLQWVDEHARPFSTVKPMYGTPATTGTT
# Procedure: as §1, §2, §3
# [2] = tested on: THP1 Dual cells (ISRE Lucia reporter, cGAS-STING pathway); assay: THP1 monocyte assay, ISRE Lucia luciferase reporter; assay type: cell-based, human; conditions: 48 hours, luciferase signal versus control wells without compound
# Excerpt: Example C is a cell-based assay for TREX1 inhibitors using THP1 Dual™ cells (Invivogen), a human monocyte cell line that has stable integration of an Interferon Stimulated Response Element (ISRE) Lucia reporter gene. The Lucia gene encodes a secreted luciferase reporter protein, under the control of an ISG54 minimal promoter in conjunction with five IFN-stimulated response elements. Activation of the cGAS-STING pathway in THP1 Dual™ cells leads to enhanced luciferase secretion and increased luminescence.
# A cell-based assay was established using THP1 Dual™ cells (Invivogen), a human monocyte cell line that has stable integration of an Interferon Stimulated Response Element (ISRE) Lucia reporter gene. The Lucia gene encodes a secreted luciferase reporter protein, under the control of an ISG54 minimal promoter in conjunction with five IFN-stimulated response elements. Activation of the cGAS-STING pathway in these cells leads to enhanced luciferase secretion. The assay was conducted in standard 384-well white tissue culture plates. Cells (25,000 in 25 μL RPMI 1640 containing 10% Heat-Inactivated FBS, 1× Glutagro, 10 mM HEPES, 1 mM sodium pyruvate, 1× Pen/Strep, 100 μg/mL Normocin, 100 μg/mL Zeocin, 10 μg/mL Blasticidin) were added to the plate followed by 25 μL of compound in the same media+0.2% DMSO. The assay was incubated for 48 hours at 37° C. in 5% CO2. An aliquot of 5 μl was removed to combine with 12.5 μL of the luciferase detection reagent, QUANTI-Luc™ Gold (Invivogen) in a white 384-well plate. The luminescent signal was then read using an EnVision plate reader (Perkin Elmer). The fold activation was calculated by dividing the signal in wells containing test compound by the signal in the control wells without compound (see Table 7).
Structure (SMILES),CXCL10 expression [1],IFI44L expression [1],IFI44 expression [1],IFIT1 expression [1],IFIT2 expression [1],IFIT3 expression [1],IFN-β expression [1],IC50 (human TREX1),IC50 (murine TREX1),Fold activation @ 10 μM [2]
N[C@@H]1C[C@H]2C(=O)N([C@H](CC(=O)O)C(=O)NCc3ccc(Cl)c(Cl)c3)CCC(CCc3ccccc3)N2C1 (stereo partly drawn) [Example 15],1,20,20,10,32,20,5,< 1 µM,< 1 µM,2
NC(=O)CC[C@H](C(=O)NCc1ccc(Cl)c(Cl)c1)N1CCC(CCc2ccccc2)N2C[C@H](N)C[C@H]2C1=O (stereo partly drawn) [Example 16],2,15,14,11,41,25,6,< 1 µM,< 1 µM,4
N[C@@H]1C[C@H]2C(=O)N([C@H](CCc3nnn[nH]3)C(=O)NCc3ccc(Cl)c(Cl)c3)CCC(CCc3ccccc3)N2C1 (stereo partly drawn) [Example 36],2,16,20,8,26,16,3,< 1 µM,< 1 µM,7
